How the values were obtained:
[1] = system: natural killer (NK) cells, CD4+ and CD8+ T cells; assay: Surface CD69 upregulation on lymphocytes after subcutaneous CDN (FACS); assay type: in vivo, BALB/c mice; settings: 50, 5 and 0.5 μM in 100 μL, base of the tail, 24 hours, FIG. 11
Procedure: To determine the relative ability of the derivative molecules to activate immune responses, CDN compounds were administered to 6-8 week old female BALB/c mice (in a total volume of 100 μL in HBSS) at doses of 50, 5 and 0.5 μM by subcutaneous injection into the base of the tail. Mice were assessed 24 hours later for lymphocyte immune cell activation by fluorescent activated cell sorting (FACS) for upregulation of surface CD69 expression on natural killer (NK) cells, CD4+ and CD8+ T cells, as compared to IgG1 isotype controls.

[2] = system: human STING variants (WT, REF, HAQ, AQ and Q); assay: IFNβ-LUC reporter in HEK293T cells expressing human STING alleles; assay type: cell-based; settings: 10 μM, digitonin permeabilization, 6 hrs, FIG. 14
Procedure: MSCV2.2 plasmids encoding hSTING(REF)-GFP, hSTING(WT)-GFP, hSTING(HAQ)-GFP, hSTING(Q)-GFP and mSTING(WT)-GFP were obtained from the Vance Laboratory at UC Berkeley. hSTING(AQ)-GFP was derived from hSTING(Q)-GFP using a QuickChange Site-Directed Mutagenesis kit (Stratagene). […] 1×10^4 HEK293T STING cells were seeded in 96-well plates and transiently transfected (using Lipofectamine 2000) with 50 ng of a human IFN-β reporter plasmid (pLuc-IFN-β) expressing the human IFN-β promoter upstream of a luciferase reporter and 10 ng of TK-renilla for normalization. 24 hours later, cells were stimulated with native and synthetic CDN derivative molecules using digitonin permeabalization to ensure uniform uptake. Each STING cell line was stimulated with 10 μM of cyclic [G(3′,5′)pA(3′,5′)p] (cGAMP), cyclic [G(2′,5′)pA(3′,5′)p] […] (RR-CDA), cyclic [A(2′,5′)pA(3′,5′)p] […] (RR-CDG), cyclic [G(2′,5′)pG(3′,5′)p] […] (ML RR-CDG) in 25 ul digitonin buffer (50 mM HEPES, 100 mM KCL, 3 mM MgCl2, 0.1 mM DTT, 85 mM Sucrose, 0.2% BSA, 1 mM ATP, 0.1 mM GTP, 10 ug/ml digitonin). After 20 min, the stimulation mixtures were removed and 200 ul of standard RPMI media was added. After stimulation for 6 hrs, cell lysates were prepared and reporter gene activity measured using the Dual Luciferase Assay System (Promega) on a Spectramax M3 luminometer.

hSTING (Q) = assay: IFNβ-LUC reporter in HEK293T cells expressing hSTING (Q); assay type: cell-based, human; settings: 10 μM, digitonin permeabilization, 6 hrs, FIG. 14
Source text: To determine the responsiveness of the five known natural human STING variants (referred to as WT, REF, HAQ, AQ and Q) to the native and derivative molecules, a panel of human embryonic kidney (HEK) 293T cell lines that expressed the human STING alleles was generated. […] MSCV2.2 plasmids encoding hSTING(REF)-GFP, hSTING(WT)-GFP, hSTING(HAQ)-GFP, hSTING(Q)-GFP and mSTING(WT)-GFP were obtained from the Vance Laboratory at UC Berkeley. hSTING(AQ)-GFP was derived from hSTING(Q)-GFP using a QuickChange Site-Directed Mutagenesis kit (Stratagene). The sequence of the hSTING(REF) allele is also known as the Barber allele (Ishikawa, H., and Barber, G. N. (2008). Nature 455, 674-678), and has the NCBI Reference Sequence NP_938023.1. The amino acid difference between hSTING(REF) and the other WT, HAQ, AQ and Q human STING alleles are shown in FIG. 13, which is adapted from Yi et al., Plos One 8: e77846 (2013). Stable HEK 293T-derived cell lines expressing each of the individual human STING alleles were generated by FACS sorting of GFP positive cells using a Mo Flo cell sorter at the Cancer Research Laboratory Flow Cytometry Facility at UC Berkeley. 1×10^4 HEK293T STING cells were seeded in 96-well plates and transiently transfected (using Lipofectamine 2000) with 50 ng of a human IFN-β reporter plasmid (pLuc-IFN-β) expressing the human IFN-β promoter upstream of a luciferase reporter and 10 ng of TK-renilla for normalization. 24 hours later, cells were stimulated with native and synthetic CDN derivative molecules using digitonin permeabalization to ensure uniform uptake. Each STING cell line was stimulated with 10 μM of cyclic [G(3′,5′)pA(3′,5′)p] (cGAMP), cyclic [G(2′,5′)pA(3′,5′)p] (ML-cGAMP), Rp, Rp dithio cyclic [G(2′,5′)pA(3′,5′)p] […] (CDA), Rp, Rp dithio cyclic [A(3′,5′)pA(3′,5′)p] (RR-CDA), cyclic [A(2′,5′)pA(3′,5′)p] (ML-CDA), Rp, Rp dithio cyclic [A(2′,5′)pA(3′,5′)p] (ML RR-CDA), cyclic [G(3′,5′)pG(3′,5′)p] (CDG), Rp, Rp dithio cyclic [G(3′,5′)pG(3′,5′)p] (RR-CDG), cyclic [G(2′,5′)pG(3′,5′)p] (ML-CDG) or Rp, Rp dithio cyclic [G(2′,5′)pG(3′,5′)p] (ML RR-CDG) in 25 ul digitonin buffer (50 mM HEPES, 100 mM KCL, 3 mM MgCl2, 0.1 mM DTT, 85 mM Sucrose, 0.2% BSA, 1 mM ATP, 0.1 mM GTP, 10 ug/ml digitonin). After 20 min, the stimulation mixtures were removed and 200 ul of standard RPMI media was added. After stimulation for 6 hrs, cell lysates were prepared and reporter gene activity measured using the Dual Luciferase Assay System (Promega) on a Spectramax M3 luminometer.

[3] = system: CT26 colon carcinoma cells; assay: CT26 lung metastasis survival model, subcutaneous CDN; assay type: in vivo, BALB/c mice; settings: CT26 intravenous, 25 μg subcutaneous at base of the tail, day 1 and one week later, log-rank test, FIG. 19A
Procedure: To further assess the ability of the derivative molecules to promote anti-tumor immunity, CT26 colon carcinoma cells (2×10^5 cells in 100 μL PBS) were implanted by intravenous injection into 6-8 week old female BALB/c mice and assessed for overall survival. The CDN compounds (25 μg in a total volume of 100 μL HBSS) were administered one day post tumor implantation by subcutaneous injection into the base of the tail. Mice were boosted with an additional injection one week later for a total of two vaccinations.

SMILES | immune cell activation (surface CD69 on NK, CD4+ and CD8+ T cells) [1] | IFNβ reporter activity, all human STING alleles [2] | IFNβ reporter response of hSTING (Q) (hSTING (Q)) | survival rates [3]
Nc1ncnc2c1ncn2[C@@H]1O[C@@H]2COP(O)(=S)O[C@@H]3C(O)[C@@H](COP(O)(=S)O[C@H]2[C@H]1O)O[C@H]3n1cnc2c(N)ncnc21 (some centres unmarked) [ML RR-CDA, dithio-[RP, RP]-cyclic-[A(2′,5′)pA(3′,5′)p]] | induced NK and T cell activation, although to a lesser extent than the ML RR-CDG molecule | strongly induce IFNβ reporter activity by all human STING alleles | responsive to stimulation | significantly higher survival rates compared to the cyclic [A(2′,5′)pA(3′,5′)p] (ML CDA) molecule
Nc1nc2c(ncn2[C@@H]2O[C@@H]3CO[P@@](O)(=S)O[C@@H]4[C@H](O)[C@@H](CO[P@@](O)(=S)O[C@H]3[C@H]2O)O[C@H]4n2cnc3c(=O)[nH]c(N)nc32)c(=O)[nH]1 [ML RR-CDG, dithio-[RP,RP]-cyclic-[G(2′,5′)pG(3′,5′)p]] | potent immune activation of NK and T cells in a dose-dependent manner | strongly induce IFNβ reporter activity by all human STING alleles | responsive to stimulation | significantly higher survival rates compared to the cyclic [G(2′,5′)pG(3′,5′)p] (ML CDG) molecule

Source: patent publication US9724408B2, “Compositions and methods for activating stimulator of interferon gene-dependent signalling” (ADURO BIOTECH, INC., priority 2013, dated 2017)
